PubChem BioAssay AID256 (DTP/NCI, 2004)
Values joined by “and” are separate entries in the source; they are usually repeats but may differ in a detail not shown here. Equal values may be shown once. Toxic doses and inconclusive results are not listed. Non-standard residues stand in square brackets, D forms with d. Residues, ends and D or L forms follow the SMILES beside them. ξ: configuration not given here. *: point of attachment. Boc = CC(C)(C)OC(=O)*; ξP = O=C(O)C1CCCN1

Tested on: CD2F1 mice, L1210 leukemia ip, survival T/C
Assay: NCI In Vivo Anticancer Drug Screen. Data for tumor model L1210 Leukemia (intraperitoneal) in CD2F1 (CDF1) mice
Settings: higher = longer survival
How it was run: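 Vehicle-treated tumor-bearing mice served as controls (C) for compound-treated mice (T). Reported figure is T divided by C.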

[1] = endpoint: mean survival time, dose: 100.0 mg/kg/injection, schedule: Q01DX009 (ip), vehicle: saline with Tween-80
[2] = endpoint: mean survival time, dose: 200.0 mg/kg/injection, schedule: Q01DX009 (ip), vehicle: saline with Tween-80
[3] = endpoint: mean survival time, dose: 400.0 mg/kg/injection, schedule: Q01DX009 (ip), vehicle: saline with Tween-80
[4] = endpoint: mean survival time, dose: 25.0 mg/kg/injection, schedule: Q01DX009 (ip), vehicle: saline with Tween-80
[5] = endpoint: mean survival time, dose: 50.0 mg/kg/injection, schedule: Q01DX009 (ip), vehicle: saline with Tween-80
[6] = endpoint: mean survival time, dose: 100.0 mg/kg/injection, schedule: Q04DX002 (ip), vehicle: saline with Tween-80
[7] = endpoint: mean survival time, dose: 100.0 mg/kg/injection, schedule: Q01DX001 (ip), vehicle: saline
[8] = endpoint: mean survival time, dose: 200.0 mg/kg/injection, schedule: Q01DX001 (ip), vehicle: saline
[9] = endpoint: mean survival time, dose: 100.0 mg/kg/injection, schedule: Q01DX001 (ip), vehicle: saline with Tween-80
[10] = endpoint: mean survival time, dose: 200.0 mg/kg/injection, schedule: Q01DX001 (ip), vehicle: saline with Tween-80
[11] = endpoint: mean survival time, dose: 400.0 mg/kg/injection, schedule: Q01DX001 (ip), vehicle: saline with Tween-80
[12] = endpoint: mean survival time, dose: 400.0 mg/kg/injection, schedule: Q01DX001 (ip), vehicle: saline
[13] = endpoint: mean survival time, dose: 75.0 mg/kg/injection, schedule: Q01DX001 (ip), vehicle: saline
[14] = endpoint: mean survival time, dose: 100.0 mg/kg/injection, schedule: Q04DX003 (ip), vehicle: saline
[15] = endpoint: mean survival time, dose: 200.0 mg/kg/injection, schedule: Q04DX003 (ip), vehicle: saline
[16] = endpoint: mean survival time, dose: 400.0 mg/kg/injection, schedule: Q04DX003 (ip), vehicle: saline

CCCCC(C)(C(=O)OCC)C(=O)OCC
T/C (endpoint: mean survival time, dose: 12.5 mg/kg/injection, schedule: Q01DX009 (ip), vehicle: Klucel (hydroxypropylcellulose) (HPC)): 98 % of control | T/C (endpoint: mean survival time, dose: 25.0 mg/kg/injection, schedule: Q01DX009 (ip), vehicle: Klucel (hydroxypropylcellulose) (HPC)): 98 % of control | T/C (endpoint: mean survival time, dose: 50.0 mg/kg/injection, schedule: Q01DX009 (ip), vehicle: Klucel (hydroxypropylcellulose) (HPC)): 108 % of control | T/C (endpoint: mean survival time, dose: 100.0 mg/kg/injection, schedule: Q01DX009 (ip), vehicle: Klucel (hydroxypropylcellulose) (HPC)): 98 % of control | T/C (endpoint: mean survival time, dose: 200.0 mg/kg/injection, schedule: Q01DX009 (ip), vehicle: Klucel (hydroxypropylcellulose) (HPC)): 98 % of control | T/C (endpoint: mean survival time, dose: 400.0 mg/kg/injection, schedule: Q01DX009 (ip), vehicle: Klucel (hydroxypropylcellulose) (HPC)): 106 % of control

C[Si](C)(C)Oc1c(Cl)cc(Cl)cc1Cl
T/C [1]: 100 % of control | T/C [2]: 91 % of control | T/C [3]: 87 % of control

CP1(=S)CCC(O)(c2ccccc2)CC1 (stereo not given)
T/C [4]: 101 % of control | T/C (endpoint: mean survival time, dose: 25.0 mg/kg/injection, schedule: Q04DX002 (ip), vehicle: saline with Tween-80): 91 % of control | T/C [5]: 89 % of control | T/C (endpoint: mean survival time, dose: 50.0 mg/kg/injection, schedule: Q04DX002 (ip), vehicle: saline with Tween-80): 91 % of control | T/C [1]: 97 % of control | T/C [6]: 95 % of control

Nc1nc(N)c2nc(CNc3ccc(C(=O)NC(CCC(=O)O)C(=O)O)cc3)ccc2n1 (stereo not given)
T/C (endpoint: mean survival time, dose: 15.63 micrograms/kg/injection, schedule: Q01DX005 (ip), vehicle: sodium bicarbonate): 118 % of control | T/C (endpoint: mean survival time, dose: 31.25 micrograms/kg/injection, schedule: Q01DX005 (ip), vehicle: sodium bicarbonate): 118 % of control | T/C (endpoint: mean survival time, dose: 62.5 micrograms/kg/injection, schedule: Q01DX005 (ip), vehicle: sodium bicarbonate): 120 % of control and 110 % of control | T/C (endpoint: mean survival time, dose: 125.0 micrograms/kg/injection, schedule: Q01DX005 (ip), vehicle: sodium bicarbonate): 113 % of control

CC(C)C/C=N/NC(=O)c1ccc[n+](C)c1
T/C (endpoint: mean survival time, dose: 50.0 mg/kg/injection, schedule: Q01DX001 (ip), vehicle: saline): 107 % of control | T/C [7]: 109 % of control | T/C [8]: 103 % of control

COc1cccc(OC)c1C1=CCCCCC1
T/C [9]: 96 % of control | T/C [1]: 101 % of control | T/C [10]: 98 % of control | T/C [2]: 97 % of control | T/C [11]: 93 % of control | T/C [3]: 104 % of control

CCCCCCCC(=O)N/N=C(\CO)[C@]1(O)Cc2c(O)c3c(c(O)c2[C@@H](OC2CC(N)C(O)C(C)O2)C1)C(=O)c1c(OC)cccc1C3=O (stereo not given in full)
T/C (endpoint: mean survival time, dose: 1.5 mg/kg/injection, schedule: Q01DX009 (ip), vehicle: saline): 124 % of control | T/C (endpoint: mean survival time, dose: 3.0 mg/kg/injection, schedule: Q01DX009 (ip), vehicle: saline): 122 % of control | T/C (endpoint: mean survival time, dose: 6.0 mg/kg/injection, schedule: Q01DX009 (ip), vehicle: saline): 122 % of control | T/C (endpoint: mean survival time, dose: 12.0 mg/kg/injection, schedule: Q01DX009 (ip), vehicle: suspension in saline): 118 % of control | T/C (endpoint: mean survival time, dose: 48.0 mg/kg/injection, schedule: Q01DX009 (ip), vehicle: suspension in saline): 162 % of control

BrC/C(=N\N1CCCCC1)c1ccc(Br)cc1
T/C (endpoint: mean survival time, dose: 25.0 mg/kg/injection, schedule: Q01DX009 (ip), vehicle: saline sonified): 100 % of control | T/C (endpoint: mean survival time, dose: 50.0 mg/kg/injection, schedule: Q01DX009 (ip), vehicle: saline sonified): 96 % of control | T/C [7]: 94 % of control | T/C (endpoint: mean survival time, dose: 100.0 mg/kg/injection, schedule: Q01DX009 (ip), vehicle: saline sonified): 96 % of control | T/C [8]: 102 % of control | T/C [12]: 95 % of control

CCc1ncc(C(C)(O)c2ccccc2)n1Cc1ccccc1 (stereo not given)
T/C [1]: 95 % of control | T/C [2]: 90 % of control | T/C [3]: 94 % of control

CS(=O)(=O)CS(=O)(=O)OCCF
T/C (endpoint: median survival time, dose: 3.12 mg/kg/injection, schedule: Q01DX009 (ip), vehicle: saline): 112 % of control | T/C (endpoint: median survival time, dose: 3.13 mg/kg/injection, schedule: Q01DX009 (ip), vehicle: saline): 119 % of control | T/C (endpoint: median survival time, dose: 12.5 mg/kg/injection, schedule: Q01DX009 (ip), vehicle: saline): 179 % of control and 189 % of control | T/C (endpoint: median survival time, dose: 25.0 mg/kg/injection, schedule: Q01DX009 (ip), vehicle: saline): 182 % of control and 349 % of control

Nc1cccc(C(=O)O)c1C(=O)O
T/C [4]: 93 % of control

CSc1nc(N)nc2n[nH]nc12
T/C (endpoint: mean survival time, dose: 100.0 mg/kg/injection, schedule: Q01DX001 (ip), vehicle: Klucel (hydroxypropylcellulose) (HPC)): 97 % of control | T/C (endpoint: mean survival time, dose: 200.0 mg/kg/injection, schedule: Q01DX001 (ip), vehicle: Klucel (hydroxypropylcellulose) (HPC)): 105 % of control | T/C (endpoint: mean survival time, dose: 400.0 mg/kg/injection, schedule: Q01DX001 (ip), vehicle: Klucel (hydroxypropylcellulose) (HPC)): 103 % of control

Brc1ccc2c(c1)C(Br)c1ccccc1-2 (stereo not given)
T/C [5]: 105 % of control | T/C [1]: 103 % of control | T/C (endpoint: mean survival time, dose: 100.0 mg/kg/injection, schedule: Q04DX003 (ip), vehicle: saline with Tween-80): 101 % of control | T/C [2]: 100 % of control | T/C (endpoint: mean survival time, dose: 200.0 mg/kg/injection, schedule: Q04DX003 (ip), vehicle: saline with Tween-80): 101 % of control

OC(CC1CCCC(CC(O)c2ccccc2)N1CCc1ccccc1)c1ccccc1 (stereo not given)
T/C [13]: 97 % of control | T/C (endpoint: mean survival time, dose: 150.0 mg/kg/injection, schedule: Q01DX001 (ip), vehicle: saline): 91 % of control

OCCN1CCN(CC/C=C2\c3ccccc3Sc3ccc(Cl)cc32)CC1
T/C (endpoint: mean survival time, dose: 3.12 mg/kg/injection, schedule: Q01DX009 (ip), vehicle: saline): 102 % of control | T/C (endpoint: mean survival time, dose: 6.25 mg/kg/injection, schedule: Q01DX009 (ip), vehicle: saline): 116 % of control | T/C (endpoint: mean survival time, dose: 12.5 mg/kg/injection, schedule: Q01DX009 (ip), vehicle: saline): 122 % of control

CCc1ccccc1OCC1CO1 (stereo not given)
T/C [7]: 102 % of control | T/C [8]: 100 % of control | T/C [12]: 102 % of control

NN1CCOC1=O
T/C [9]: 97 % of control | T/C [10]: 100 % of control

CO[C@@]12[C@@H]3N[C@@H]3CN1C1=C(C(=O)C(Nc3nc(C)cs3)=C(C)C1=O)[C@@H]2COC(N)=O
T/C (endpoint: mean survival time, dose: 1.5 mg/kg/injection, schedule: Q01DX001 (ip), vehicle: water): 116 % of control and 112 % of control | T/C (endpoint: mean survival time, dose: 3.0 mg/kg/injection, schedule: Q01DX001 (ip), vehicle: water): 115 % of control | T/C (endpoint: mean survival time, dose: 6.0 mg/kg/injection, schedule: Q01DX001 (ip), vehicle: water): 121 % of control

CCOC(=O)Nc1cc(NCc2ccccc2)c(N)c(N)n1
T/C [9]: 103 % of control | T/C [10]: 103 % of control

Nc1cc(NCc2ccco2)ncn1
T/C (endpoint: mean survival time, dose: 37.5 mg/kg/injection, schedule: Q01DX009 (ip), vehicle: Klucel (hydroxypropylcellulose) (HPC)): 107 % of control | T/C (endpoint: mean survival time, dose: 75.0 mg/kg/injection, schedule: Q01DX009 (ip), vehicle: Klucel (hydroxypropylcellulose) (HPC)): 97 % of control and 104 % of control

N/C(=N/OCc1ccccc1)c1ncn(C2CCCC2)c1NC=O
T/C (endpoint: mean survival time, dose: 100.0 mg/kg/injection, schedule: Q01DX001 (ip), vehicle: other): 112 % of control | T/C (endpoint: mean survival time, dose: 200.0 mg/kg/injection, schedule: Q01DX001 (ip), vehicle: other): 104 % of control | T/C (endpoint: mean survival time, dose: 400.0 mg/kg/injection, schedule: Q01DX001 (ip), vehicle: other): 102 % of control

COC(=O)CNC(=O)C1CCCN1C(=O)OC(C)(C)C (stereo not given) (Boc-[ξP]-Gly-OMe)
T/C [14]: 94 % of control | T/C [15]: 97 % of control | T/C [16]: 107 % of control

COc1c(C)c2c(c(O)c1C/C=N\O)C(=O)OC2
T/C [6]: 100 % of control | T/C (endpoint: mean survival time, dose: 200.0 mg/kg/injection, schedule: Q04DX002 (ip), vehicle: saline with Tween-80): 100 % of control | T/C (endpoint: mean survival time, dose: 400.0 mg/kg/injection, schedule: Q04DX002 (ip), vehicle: saline with Tween-80): 100 % of control

O=C(NCCN=Cc1ccccc1)c1ccccc1
T/C [9]: 108 % of control | T/C [1]: 98 % of control | T/C [10]: 101 % of control | T/C [2]: 101 % of control | T/C [11]: 95 % of control | T/C [3]: 97 % of control

CN(C)C=Nc1ccc([N+](=O)[O-])c2ccccc12
T/C (endpoint: mean survival time, dose: 100.0 mg/kg/injection, schedule: Q01DX009 (ip), vehicle: other): 105 % of control | T/C (endpoint: mean survival time, dose: 200.0 mg/kg/injection, schedule: Q01DX009 (ip), vehicle: other): 103 % of control | T/C (endpoint: mean survival time, dose: 400.0 mg/kg/injection, schedule: Q01DX009 (ip), vehicle: other): 96 % of control

COc1cc2c(c3ccccc13)CCCC2=O
T/C [1]: 95 % of control | T/C [2]: 92 % of control | T/C [3]: 97 % of control

CC(C)CC([N+](C)(C)C)P(=O)([O-])O (stereo not given)
T/C [14]: 101 % of control | T/C [15]: 95 % of control | T/C [16]: 98 % of control

COc1c(OC(C)=O)ccc2c1C=CCCC2=O
T/C [5]: 96 % of control | T/C [1]: 100 % of control | T/C [2]: 92 % of control

CCCCCCCCCCCCCCCCCC(=O)NCCN(CC)CC
T/C [13]: 101 % of control
